Patent US20260201324A1, “METHOD FOR DIFFERENTIATING NEURAL CREST STEM CELLS COMPRISING AXIAL SPECIFICATION INFORMATION” (BLESS BIOTHERAPEUTICS INC., priority 2022, published 2026)

B1: BMP4: signaling protein promoting ETS1 in initial neural crest stem cells (protein, UniProt P12644 293-408, looked up)
Bone morphogenetic protein 4: SPKHHSQRARKKNKNCRRHSLYVDFSDVGWNDWIVAPPGYQAFYCHGDCPFPLADHLNSTNHAIVQTLVNSVNSSIPKACCVPTELSAISMLYLDEYDKVVLKNYQEMVVEGCGCR

Assays:
Assay type in all cases: cell-based, human
[1] = test system: initial NCSCs (expressing p75 NGFR or HNK1); assay: Gene expression analysis of NCSCs after second differentiation with axial specification stimulating factor
Method: The NCSCs at the neural plate border-stage (cells on Day 5 of the differentiation) expressing p75 NGFR or HNK1 isolated by FACS in Example 3-1 were re-seeded at 300,000 cells per well in a 24-well plate coated with Geltrex, Matrigel, or Laminin+Fibronectin. After 24 hours, the PIM medium added on Day 5 for stabilization was gradually changed to a neurobasal medium containing 2% B-27 supplement, 1% N2 supplement, and 1% Glutamax together with fibroblast growth factor 2 (FGF2) (Table 2). As an axial specification stimulating factor, FGF2 was added to the culture medium on days 6 to 10 of differentiation, and the proliferated neural crest stem cells were purified by FACS using an antibody against the neural crest stem cell surface antigen p75 NGFR on days 11 to 14 of differentiation (FIG. 4).
Accordingly, it was confirmed that the role of the non-NCSCs is to activate FGF signaling of the initial NCSCs, inducing to cranial specification.

[2] = test system: initial NCSCs; assay: Mechanism analysis of axial specification of initial NCSCs by signaling factors (immunochemical analysis, FACS); settings: initial NCSCs isolated on Day 5; for ETS1 protein expression: FGF2 effect through BMP4
Text: (§1) The initial NCSCs were isolated on Day 5 of the differentiation, and then, on Days 5 or 10, the expression of the ETS1 protein was confirmed in the FGF2-treated NCSCs by immunochemical analysis, and the direct effects of various signaling factors on the initial NCSCs were confirmed by FACS analysis.

[3] = test system: NCSCs at the neural plate border-stage; assay: mRNA expression of cranial and cardiac NCSC markers after second differentiation
Text: The NCSCs (those on Day 5 of the differentiation) at the neural plate border-stage obtained through the first differentiation in Example 3-1 were re-distributed and each treated with bFGF or CHIR99021+ retinoic acid to be differentiated into cranial NCSCs or cardiac NCSCs.

[4] = test system: SOX9 reporter hESCs; assay: Differentiation into cranial NCSCs using SOX9 reporter hESC (FACS)
Text: as §1
When NCSCs were differentiated without FGF2 treatment using SOX9: reporter hESC, a known marker of cranial NCSCs, the differentiation efficiency into cranial NCSCs was approximately 25%, and when treated with bFGF, the percentage of SOX9-expressing cells was 80% or more (FIGS. 8C and 8D).

[5] = NCSCs treated at second differentiation

Molecule	expression of the HOX gene [1, 5]	expression of the TWIST1 gene (marker gene of cranial NCSCs) [1, 5]	expression ratio of ETS1/ZIC1 ([1]; second culture for 5 days, isolated initial NCSC group and unisolated mixed cell group)	ZIC1 gene expression in single cells ([1]; single NCSCs, from Day 4)	ZIC1 gene expression [2]	ETS1 protein expression [2]	ZIC1 gene expression ([2]; listed as bFGF)	mRNA expression of PRRX2 (cranial NCSC marker) [3]	mRNA expression of SOX9 (cranial NCSC marker) [3]	mRNA expression of TWIST1 (cranial NCSC marker) [3]	percentage of SOX9-expressing cells ([4]; SOX9 reporter hESC, cranial NCSC differentiation) [%]	differentiation efficiency from SOX9 reporter hESCs into cranial neural crest stem cells ([4]; two-step differentiation method)
fibroblast growth factor 2 [FGF2]	decreased expression	increased expression	increased	significant decrease	inhibit	promotion	inhibitory effect	increased	increased	increased	≥ 80	about 80%
B1	–	–	–	–	–	promotion	–	–	–	–	–	–
